# Test system: TH-positive (dopaminergic) neurons of mesencephalon cultures
# Experiment: Survival of TH-positive dopaminergic neurons in rat mesencephalon primary cultures, degeneration by chronic treatment with PDC, under controlled gaseous atmosphere
# Assay type: cell-based
# Set-up: key to Survival of TH-positive neurons: a favorable response, synonymous with a decrease in the level of neuronal cell death in the presence of the treatments of interest, is denoted by a “+”, “++”, or “+++” sign (+++ = level of reference); a favorable response, synonymous with a decrease in the level of neuronal cell death in the presence of the treatments of interest, is denoted by a “+”, “++”, or “+++” sign; a favorable response, synonymous with a decrease in the level of neuronal cell death in the presence of the treatments of interest, is denoted by a “+”, “++”, or “+++” sign; an unfavorable response is represented by a “−” sign, synonymous with an increase in the neuronal death
# Settings: for Survival of TH-positive neurons: D13-D16, analyzed D16; for survival rate of dopaminergic neuronal cells: % of cultures not treated with PDC under 75% nitrogen
# Protocol: Cultures are prepared from mesencephalon of rat embryos, taken from gestating female Wistar rats on day 15.5 of gestation. The method for obtaining the mesencephalon cultures comprises obtaining a homogeneous cell suspension via mechanical dissociation, i.e. non-enzymatic dissociation, of the embryonic tissue, using Leibovitz L15 medium (Sigma Aldrich). Aliquots of this suspension are added to Nunc 48-well plates, which were precoated with a thin layer of polyethyleneimine (1 mg/ml, borate buffer, pH 8.3) so as to enable the adhesion of the neuronal cells (cf. Toulorge et al., Faseb J, 2011). The seeding density is between approximately 80 000 and 100 000 cells/cm^2. The mesencephalon cultures are maintained in neurobasal culture medium, containing a B27 cocktail without antioxidant, N2 supplement, glutamine (2 mM) and a penicillin/streptomycin cocktail ([…] al., J Neurochem, 2008). The medium and supplements thereof are available from Life Technologies. Up to the time when the effects of the gases of interest are evaluated, the cultures are placed in a conventional enclosure thermostatically controlled at 37° C., in which the CO2 is maintained at 5% by volume and wherein the atmosphere is saturated with water. No change of culture medium is carried out throughout the culture period. Pharmacological Treatments of the Cultures p The degenerative process is triggered by applying a glutamate reuptake system blocker, L-trans-pyrrolidine-2,4-dicarboxylic acid or PDC (Zuiderwijk et al., Europ J Pharmacol, 1994). The antioxidant, namely Trolox, is added to the cultures before the application of PDC. Once the pharmacological treatments have been carried out, the multiwell plates containing the cells in culture and the plate used to humidify the internal compartment of the chamber are placed on a metal base which receives the Plexiglas incubation chamber. The two parts (base and Plexiglas chamber) are butt-joined together by screwing. A gas mixture of interest comprising (% by volume): 20% of O2, 5% of CO2 and 75% of the gas tested is then injected into the incubation chamber, with open inlet and outlet valves, while at the same time controlling the output flow rate by means of a flow meter. The gases tested are nitrogen and xenon. The reference output flow rate, set for air at 10 liters/min, is corrected according to the density of the mixture used. When the CO2 measurement reaches 5% at the outlet, the injection of the gas mixture is stopped and the chamber is made totally airtight by closing the inlet and outlet valves. The exposure chamber is then placed in an enclosure at 37° C. throughout the experimental protocol. After breaking the […] by opening the inlet and outlet valves and unscrewing the chamber from its base, the cultures are fixed with 4% formaldehyde in PBS for 12 min and then incubated at 4° C. with an anti-TH monoclonal antibody (dilution 1/5000) for 2 days. […] The image acquisition is carried out with an infrared imager of Odyssey type (Li-COR Biosciences) and the quantification of the neurons is carried out by means of the ICY software (Institut Pasteur). The results recorded on the figure appended hereto illustrate the synergistic protective effects of xenon and of Trolox in a cell model mimicking chronic Parkinsonian degeneration. […] The cultures are then recovered for fixing and analysis. The neuronal survival is quantified under the various experimental conditions tested, by counting the number of cell bodies immunopositive for the dopaminergic marker TH. The results are expressed in % (±SEM) of the mean values of the cultures not treated with PDC, maintained under 75% of nitrogen (control condition).
smiles,measurement,setting,value
"O=C(O)[C@H]1CN[C@H](C(=O)O)C1 (relative stereo) [PDC, L-trans-pyrrolidine-2,4-dicarboxylic acid]",Survival of TH-positive neurons,"PDC 100 μM, 20% O2 + 5% CO2 + 75% N2",−
same,survival rate of dopaminergic neuronal cells,"PDC 100 μM, atmosphere containing 75 vol % nitrogen",25.4%
"Cc1c(C)c2c(c(C)c1O)CCC(C)(C(=O)O)O2 (stereo not drawn) [Trolox, 6-hydroxy-2,5,7,8-tetramethylchromane-2-carboxylic acid]",Survival of TH-positive neurons,"PDC 100 μM + Trolox 0.1 μM, 75% N2",−
same,Survival of TH-positive neurons,"PDC 100 μM + Trolox 0.3 μM, 75% N2",−
same,Survival of TH-positive neurons,"PDC 100 μM + Trolox 1 μM, 75% N2",+
same,Survival of TH-positive neurons,"PDC 100 μM + Trolox 10 μM, 75% N2",++
same,Trolox concentration from which a significant protective effect is produced,"PDC 100 μM, 75% nitrogen, p<0.05 vs cultures exposed only to PDC in the same atmosphere",≥ 1 µM
same,effect of Trolox applied alone on neuronal survival,"PDC 100 μM, Trolox 0.1-0.3 μM, atmosphere containing 75% nitrogen",no significant effect
"[Xe] [Xe, xenon]",Survival of TH-positive neurons,"PDC 100 μM, 20% O2 + 5% CO2 + 75% Xe",++
same,"survival of dopaminergic neurons treated with PDC, 75% xenon compared with 75% nitrogen","PDC 100 μM, Trolox present or absent, p<0.05 vs corresponding cultures under 75% nitrogen",increase in the survival
same,survival rate of dopaminergic neuronal cells,"PDC 100 μM, nitrogen replaced with xenon (75%)",57.7%
same,Survival of TH-positive neurons,"no PDC (Control group II), 20% O2 + 5% CO2 + 75% Xe",+++
